Reference: publication PMC2922380, “Binding of Protein Kinase Inhibitors to Synapsin I Inferred from Pair-Wise Binding Site Similarity Measurements” (PLoS ONE, 2010)
Where two headings read alike, the source gives them in different places.

Key:
bovine synapsin I = bovine synapsin I (Bos taurus, UniProt P17599); test: ATP-γ35S binding competition assay on purified synapsin I; settings: for maximal inhibition of ATP-γ35S binding to synapsin I: from curve fitting (lower plateau); for binding to synapsin I (result in words): ATP-γ35S competition, inhibitor 0.1–30 µM
Procedure: Synapsin I was purified from bovine brain [71] and stored in liquid nitrogen in 200 mM NaCl, 25 mM TrisCl, pH 7.4. […] ATP-γ^35S binding was quantified as previously described. Briefly, aliquots of the samples were spotted onto squares of phosphocellulose paper (Upstate/Millipore, Billerica, MA). The paper squares were extensively washed with deionized water for 30 min, air-dried and analyzed for radioactivity by using the Perkin Elmer Cyclone Plus Phosphor Imager. After subtraction of the background values (samples with no synapsin I), data from individual competition curves were fitted with a sigmoidal dose-response function (f = min +(max–min)/(1+10∧((logEC50-x)*Hillslope)) using the Sigmaplot 8.0 software (SPSS Inc., Chicago, IL) to yield IC50 and maximal inhibition values. Data in the plots are the means ± sem of at least 5 independent experiments.

synapsin I / F-actin = test: F-actin bundling activity of synapsin I, low speed sedimentation assay; type: biochemical, bovine; settings: staurosporine 5 µM; synapsin I 0.5 µM, F-actin 5 µM; vs samples with F-actin and synapsin I only
Procedure: Actin was purified from acetone powder of rabbit skeletal muscles, [96] and stored in liquid nitrogen in 2 mM Tris pH 8, 0.2 mM ATP, 0,2 mM CaCl2, 0.125 mM β-mercaptoethanol and 0.005% NaN3 (G-buffer). Before the experiments, both G-actin and synapsin I were prespun for 1 h at 4°C at 300,000× g to remove large aggregates. G-actin was polymerized at room temperature for 1 h in the presence of 100 mM KCl, 1.2 mM MgCl2. […] Pellets were solubilized in sample buffer and analyzed by sodium dodecylsulfate polyacrylamide gel electrophoresis (SDS-PAGE) using 10% acrylamide in the resolving gel. Gels were fixed, stained with Coomassie Blue and destained. Densitometric analysis of the actin bands was carried out by using the ImageQuant system (GE Healthcare) followed by densitometric analysis of the fluorograms and by data interpolation into a standard curve of purified G-actin run in parallel with the unknown samples.

[1] = ATP-γ35S 0.2 µM, purified bovine synapsin I 0.5 µM
[2] = ATP-γ35S 0.2 µM, purified bovine synapsin I 0.5 µM, means ± sem from 5 independent experiments, read-out: IC50, inhibition of ATP-γ35S binding to synapsin I

IC50 (bovine synapsin I; [2]) [nM]	binding to synapsin I (result in words) (bovine synapsin I)	Compound	maximal inhibition of ATP-γ35S binding to synapsin I (bovine synapsin I; [1])	other results
	inactive	CCc1cc(-c2n[nH]c(C)c2-c2ccc3c(c2)OCCO3)c(O)cc1O [CCT018159]		
> 30000		O=S(=O)(NCCNC/C=C/c1ccc(Br)cc1)c1cccc2cnccc12 [H-89]		
	inactive	Cc1nc2sccn2c(=O)c1CCN1CCC(=C(c2ccccc2)c2ccc(F)cc2)CC1 [R59022]		
500		O=C(O)CN1C(=O)c2c(I)c(I)c(I)c(I)c2C1=O [compound 70159800251]	ca. 70%	

Continued, compound first:

Compound	IC50 (bovine synapsin I; [2]) [nM]	binding to synapsin I (result in words) (bovine synapsin I)	maximal inhibition of ATP-γ35S binding to synapsin I (bovine synapsin I; [1])	other results
Nc1ncnc2c1ncn2[C@@H]1O[C@H](COP(=O)(O)OP(=O)(O)OP(=O)(O)O)[C@@H](O)[C@H]1O [ATP]	70 ± 10		95.8±2.2%	
O=c1c(O)c(-c2ccc(O)c(O)c2)oc2cc(O)c(O)c(O)c12 [quercetagetin]			88.3±4.9%	IC50 (bovine synapsin I): 150 nM
CN[C@@H]1C[C@H]2O[C@@](C)([C@@H]1OC)n1c3ccccc3c3c4c(c5c6ccccc6n2c5c31)C(=O)NC4 [staurosporine]			84.3±1.2%	affinity to bovine synapsin I (bovine synapsin I; in vitro competition assay, as restated in Discussion): about 0.3 µM; increase in F-actin/synapsin I bundles recovered by low speed sedimentation (synapsin I / F-actin): approximately 30%
novobiocin		inactive		
